± gives the standard deviation of the averaged measurements.
Tested on: HepaRG
Assay: LDH release cytotoxicity, % of total lysis control; higher = more cytotoxic
Conditions: 48 h
In short: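 On collagen I-coated 96-well plates, single-lot HepaRG cells were exposed for 48 h, in duplicate, to eight-point half-log series of test chemicals beginning at 100 µM. The exposure medium was serum-free induction medium with 0.5% DMSO, and total lysis wells got 0.1% Triton X. Resorufin fluorescence from the CytoTox-ONE reaction, read on a Tecan Safire, reported LDH in 50 µL of spent medium. Percent cytotoxicity came from normalization to on-plate vehicle and total lysis controls, averaged over the duplicates.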

CNC(C)=O [N-Methylacetamide]
Conditions | LDH release cytotoxicity [%]
0.03162 µM | -1.43 ± 0.55
0.1 µM | -0.843 ± 0.23
0.3162278 µM | -1.8 ± 0.64
1 µM | -2.12 ± 0.12
3.16228 µM | -2.26 ± 0.74
10 µM | -2.1 ± 0.54
31.6228 µM | -2.47 ± 0.73
100 µM | 34 ± 4.3

CCCCCCCCN(C)CCCCCCCC [N-Methyldioctylamine]
Conditions | LDH release cytotoxicity [%]
0.03162 µM | -0.874 ± 0.42
0.1 µM | -1.29 ± 0.46
0.3162278 µM | -1.43 ± 0.024
1 µM | -1.23 ± 0.32
3.16228 µM | -0.708 ± 0.21
10 µM | -1.14 ± 0.69
31.6228 µM | -0.369 ± 0.46
100 µM | 0.33 ± 0.63

CCCN(CCC)N=O [N-Nitrosodi-n-propylamine]
Conditions | LDH release cytotoxicity [%]
0.03162 µM | 0.0788 ± 0.46
0.1 µM | -0.576 ± 0.82
0.3162278 µM | -1.11 ± 1.1
1 µM | -2.21 ± 1.1
3.16228 µM | -1.474 ± 0.0032
10 µM | -1.09 ± 0.64
31.6228 µM | -1.53 ± 0.55
100 µM | 0.635 ± 0.017

CCCCN(CCCC)N=O [N-Nitrosodibutylamine]
Conditions | LDH release cytotoxicity [%]
0.03162 µM | -1.09 ± 0.045
0.1 µM | -1.36 ± 0.25
0.3162278 µM | -1.56 ± 0.69
1 µM | -2.27 ± 0.91
3.16228 µM | -1.56 ± 0.58
10 µM | -1.2 ± 0.67
31.6228 µM | -1.12 ± 0.17
100 µM | 0.0939 ± 0.25

CCN(CC)N=O [N-Nitrosodiethylamine]
Conditions | LDH release cytotoxicity [%]
0.03162 µM | -0.893 ± 0.61
0.1 µM | -0.536 ± 0.29
0.3162278 µM | -0.901 ± 0.49
1 µM | -0.963 ± 0.049
3.16228 µM | -0.649 ± 0.33
10 µM | -1.08 ± 0.2
31.6228 µM | 0.447 ± 0.97
100 µM | 0.842 ± 0.95

CN(C)N=O [N-Nitrosodimethylamine]
Conditions | LDH release cytotoxicity [%]
0.02893 µM | 0.0505 ± 1.7
0.0915 µM | -1.57 ± 0.31
0.289348 µM | -0.817 ± 0.056
0.915 µM | -1.29 ± 0.63
2.89348 µM | -2.32 ± 1.1
9.15 µM | -0.967
28.9348 µM | -0.682 ± 0.11
91.5 µM | 0.3 ± 0.0093

O=NN(c1ccccc1)c1ccccc1 [N-Nitrosodiphenylamine]
Conditions | LDH release cytotoxicity [%]
0.03162 µM | -1.74 ± 0.78
0.1 µM | -0.497 ± 0.4
0.3162278 µM | -1.57 ± 1.3
1 µM | -1.63 ± 0.68
3.16228 µM | -0.54 ± 0.41
10 µM | -0.535 ± 0.14
31.6228 µM | 1.3 ± 1.2
100 µM | 15.9 ± 4.8

Nc1ccc(Nc2ccccc2)cc1 [N-Phenyl-1,4-benzenediamine]
Conditions | LDH release cytotoxicity [%]
0.03162 µM | -1.18 ± 0.34
0.1 µM | -0.818 ± 0.15
0.3162278 µM | -1.06 ± 0.022
1 µM | -0.838 ± 1.2
3.16228 µM | -0.438 ± 0.59
10 µM | -0.107 ± 0.88
31.6228 µM | 1.04 ± 0.016
100 µM | 3.97 ± 0.91

C=CN1CCCC1=O [N-Vinyl-2-pyrrolidone]
Conditions | LDH release cytotoxicity [%]
0.01581 µM | -1.31 ± 0.34
0.05 µM | -2.25 ± 0.44
0.1581139 µM | -2.68 ± 0.3
0.5 µM | -2.71 ± 0.27
1.5811388 µM | -2.96 ± 0.54
5 µM | -2.54 ± 0.67
15.8114 µM | -1.96 ± 0.93
50 µM | -0.521 ± 0.9

COP(=O)(OC)OC(Br)C(Cl)(Cl)Br (configuration not stated) [Naled]
Conditions | LDH release cytotoxicity [%]
0.03162 µM | -2.18 ± 0.54
0.1 µM | -1.58 ± 0.07
0.3162278 µM | -1.53 ± 0.67
1 µM | -2.25 ± 0.69
3.16228 µM | -0.95 ± 0.64
10 µM | -1.19 ± 0.38
31.6228 µM | -0.943 ± 0.2
100 µM | -0.896 ± 0.77

c1ccc2ccccc2c1 [Naphthalene]
Conditions | LDH release cytotoxicity [%]
0.03162 µM | -0.307 ± 0.6
0.1 µM | -1.13 ± 0.077
0.3162278 µM | -0.248 ± 0.12
1 µM | -0.532 ± 0.32
3.16228 µM | 0.237 ± 0.93
10 µM | 1.23 ± 1
31.6228 µM | 0.531 ± 0.68
100 µM | 2.74 ± 0.9

CCN(CC)C(=O)C(C)Oc1cccc2ccccc12 (configuration not stated) [Napropamide]
Conditions | LDH release cytotoxicity [%]
0.03162 µM | -0.242 ± 0.62
0.1 µM | -0.853 ± 0.36
0.3162278 µM | -1.37 ± 0.22
1 µM | -0.226 ± 0.36
3.16228 µM | -1.59 ± 1.4
10 µM | -0.144 ± 0.53
31.6228 µM | 0.0468 ± 0.54
100 µM | 1.05 ± 1.2

COc1ccc(S(=O)(=O)N2C(=O)C(c3ccccc3OC)(N3CC(O)CC3C(=O)N(C)C)c3cc(Cl)ccc32)c(OC)c1 (configuration not stated) [Nelivaptan]
Conditions | LDH release cytotoxicity [%]
0.03162 µM | -0.817 ± 0.14
0.1 µM | 0.214 ± 1.6
0.3162278 µM | 0.146 ± 0.67
1 µM | -0.447 ± 0.43
3.16228 µM | -0.164 ± 0.61
10 µM | 0.998 ± 1.2
31.6228 µM | -0.141 ± 0.64
100 µM | -0.056 ± 0.061

CN1CCCC1c1cccnc1 (configuration not stated) [Nicotine]
Conditions | LDH release cytotoxicity [%]
0.031623 µM | 0.0561 ± 0.16
0.1 µM | -2.6 ± 0.49
0.316228 µM | -2.47 ± 0.26
1 µM | -2.55 ± 0.14
3.16228 µM | -2.4 ± 0.23
10 µM | -2.95 ± 0.78
31.6228 µM | -1.31 ± 0.45
100 µM | 0.154 ± 0.86

O=C(O)c1cccnc1 [Nicotinic acid]
Conditions | LDH release cytotoxicity [%]
0.0327296 µM | -1.39 ± 0.94
0.1035 µM | -1.35 ± 0.33
0.327296 µM | -1.95 ± 0.85
1.035 µM | -1.67 ± 0.46
3.27296 µM | -1.83 ± 0.44
10.35 µM | -0.596 ± 0.74
32.729574 µM | -0.819 ± 0.39
103.5 µM | 0.214 ± 0.71

Clc1cccc(C(Cl)(Cl)Cl)n1 [Nitrapyrin]
Conditions | LDH release cytotoxicity [%]
0.031623 µM | -0.0337 ± 1.6
0.1 µM | -0.859 ± 0.33
0.316228 µM | -1.7 ± 1.4
1 µM | -2.43 ± 0.29
3.16228 µM | -2.02 ± 0.78
10 µM | -1.29 ± 0.76
31.6228 µM | -1.63 ± 1.3
100 µM | 1.2 ± 0.065

O=C(O)CN(CC(=O)O)CC(=O)O [Nitrilotriacetic acid]
Conditions | LDH release cytotoxicity [%]
0.03162 µM | -0.992 ± 1.1
0.1 µM | -2.54 ± 0.17
0.3162278 µM | -2.46 ± 0.55
1 µM | -2.18 ± 1.1
3.16228 µM | -1.64 ± 0.13
10 µM | -2.38 ± 0.72
31.6228 µM | -1.51 ± 0.34
100 µM | -0.286 ± 0.059

O=[N+]([O-])c1ccccc1 [Nitrobenzene]
Conditions | LDH release cytotoxicity [%]
0.03162 µM | -0.035 ± 0.65
0.1 µM | -0.746 ± 0.34
0.3162278 µM | -0.739 ± 0.36
1 µM | -0.928 ± 0.55
3.16228 µM | -1.24 ± 0.27
10 µM | -0.372 ± 0.35
31.6228 µM | -0.298 ± 1.3
100 µM | 1.13 ± 0.81

O=[N+]([O-])c1ccc(Oc2ccc(Cl)cc2Cl)cc1 [Nitrofen]
Conditions | LDH release cytotoxicity [%]
0.03162 µM | 0.322 ± 3
0.1 µM | -0.97 ± 0.56
0.3162278 µM | -0.303 ± 0.48
1 µM | -0.821 ± 0.57
3.16228 µM | -0.947 ± 1
10 µM | 0.734 ± 0.22
31.6228 µM | 0.996 ± 0.67
100 µM | 3.046 ± 0.0066

Source: the supplement of paper PMC7840683
